Patent US4612321A, “5-pyridyl-1,3-thiazole derivatives” (Takeda Chemical Industries, Inc., priority 1983, dated 1986)

Experiments:
[1] = tested on: thromboxane A2 (TXA2) synthetase; experiment: thromboxane A2 (TXA2) synthetase inhibiting action; type: biochemical; details: statement in words, no test data
[2] = tested on: Phenylquinone writhing syndrome; experiment: Analgesic action: Phenylquinone writhing syndrome (P.Q. Method); type: in vivo, mice (Slc:ICR, male); details: for analgesic action: statement in words; for P.Q. Method (inhibitory effect on writhing and stretching): mouse, oral, 30 minutes before phenylquinone
Procedure: B. Analgesic action: Phenylquinone writhing syndrome (P.Q. Method)
The test was conducted by following the method Siegmund et al. [Proc. Soc. exp. Biol. Med. 95, 729 (1957).] employing a group [ten Slc:ICR mice (male, 4-weeks old, weighing 20±2 g)]. Test compounds were administered orally 30 minutes before intraperitoneal injection of 0.02% phenylquinone by 0.1 ml/body weight of 10 g. Then, the frequency of responses, i.e. writhing and stretching was counted in each animal for 20 minutes. The average frequencies in the test group and the control group were compared, and an inhibitory effect of the compounds on this response was determined.

[3] = tested on: Water-immersion stress-induced gastric ulcer; experiment: Water-immersion stress-induced gastric ulcer (W.I. Method); type: in vivo, rats (SD, male); details: for anti-ulcer action: statement in words; for W.I. Method (inhibition ratio of ulcer index): rat, 50 mg/kg, 23° C. water immersion for five hours
Procedure: C. Water-immersion stress-induced gastric ulcer (W.I. Method)
Male SD rats (7-weeks old, weighing 190-240 g) were used after a 24 hr. fast in groups of six animals. According to the method of Takagi and Okabe [Jpn. J. Pharmacol., 18, 9 (1968)], the animals were placed in a stress cage made of stainless steel and immersed vertically to the level of xiphoid process in a water bath maintained at 23° C. for five hours. The length (mm) of individual lesions in fundic mucosa was measured under a dissecting microscope with a 1-mm square-grid eye piece (X10), and the sum of the length of individual lesions for each stomach was used as an ulcer index. The ulcer index of the test group was compared with that of the control group, and the inhibition ratio was calculated.

anti-pyretic action = type: in vivo; details: statement in words, no test data
platelet aggregation = platelet aggregation controlling (inhibiting) action; type: cell-based; details: statement in words, no test data
[4] = tested on: Carrageenin edema (right-hind paw); experiment: Anti-inflammatory activity; Carrageenin edema (C.E. Method); type: in vivo, rats (Jcl: SD, male); details: rat, oral, 1 h before carrageenin; edema measured 3 hr later; dose not given
Procedure: A. Anti-inflammatory activity; Carrageenin edema (C.E. Method)
The anti-inflammatory activities of test compounds were estimated in a group [Six Jcl: SD rats (male, weighing 180-220 g)] by the method of Winter et al. [Proc. Soc. Exp. Biol. 111, 544 (1962)].
After measuring the volume of the right-hind paw (a), the rats were given orally 5 ml of water. One hour after oral administration of the test compounds, 0.05 ml each of a 1% carrageenin solution in physiological saline was subcutaneously injected at the sole of right-hind paw. Three hr. later, the volume of the right-hind paw was measured (b). The volume of edema was obtained from the difference […] between the two volumes. By comparing the volume of edema of the group, to which test compound was administered, with that of the group, to which no test compound was administered, an inhibitory effect of the compound on the edema was determined.

mice = experiment: Acute toxicity Test in mice; type: in vivo, mice (ICR, male); details: mouse, oral, 500 mg/kg, one week, groups of five
Procedure: D. Acute toxicity Test in mice
Five-weeks old ICR-male mice were used in groups of five animals. Each animal was orally administered with 500 mg/kg of each test compound. Then, during the subsequent one week, the number of dead animals was counted.

| Compound | analgesic action [2] | anti-ulcer action [3] | anti-pyretic action (anti-pyretic action) | C.E. Method (inhibitory effect on the carrageenin edema) [4] | W.I. Method (inhibition ratio of ulcer index) [3] | Acute Toxicity (number of dead animals / animals) (mice) | P.Q. Method (inhibitory effect on writhing and stretching) ([2]; 50 mg/kg) | further results |
| --- | --- | --- | --- | --- | --- | --- | --- | --- |
| O=C(O)CCCc1nc(-c2ccccc2)c(-c2cccnc2)s1 |  |  |  |  |  |  |  | thromboxane synthetase inhibiting action [1]: particularly excellent |
| COc1ccc(-c2nc(N)sc2-c2cccnc2)cc1 [2-amino-4-(4-methoxyphenyl)-5-(3-pyridyl)-1,3-thiazole] | particularly excellent | particularly excellent | particularly excellent |  |  |  |  |  |
| COc1ccc(-c2nc(C3CCCCC3)sc2-c2cccnc2)cc1 [2-cyclohexyl-4-(4-methoxyphenyl)-5-(3-pyridyl)-1,3-thiazole] |  |  |  |  |  |  |  | platelet aggregation controlling action (platelet aggregation): partienlarly excellent |
| c1ccc(-c2nc(C3CCCCC3)sc2-c2cccnc2)cc1 [2-cyclohexyl-4-phenyl-5-(3-pyridyl)-1,3-thiazole] |  |  |  |  |  |  |  | platelet aggregation controlling action (platelet aggregation): partienlarly excellent |
| CCc1nc(-c2ccc(OC)cc2)c(-c2cccnc2)s1 [2-ethyl-4-(4-methoxyphenyl)-5-(3-pyridyl)-1,3-thiazole] | particularly excellent | particularly excellent | particularly excellent |  |  |  |  |  |
| CCNc1nc(-c2ccc3c(c2)OCO3)c(-c2cccnc2)s1 [2-ethylamino-4-(3,4-methylenedioxyphenyl)-5-(3-pyridyl)-1,3-thiazole] | particularly excellent | particularly excellent | particularly excellent |  |  |  |  |  |
| CCNc1nc(-c2ccc3c(c2)CCC3)c(-c2cccnc2)s1 [2-ethylamino-4-(5-indanyl)-5-(3-pyridyl)-1,3-thiazole] | particularly excellent | particularly excellent | particularly excellent |  |  |  |  |  |
| CNc1nc(-c2ccc3c(c2)OCO3)c(-c2cccnc2)s1 [2-methylamino-4-(3,4-methylenedioxyphenyl)-5-(3-pyridyl)-1,3-thiazole] | particularly excellent | particularly excellent | particularly excellent |  |  |  |  |  |
| COc1ccc(-c2nc(-c3ccccc3)sc2-c2cccnc2)cc1 [2-phenyl-4-(4-methoxyphenyl)-5-(3-pyridyl)-1,3-thiazole] |  |  |  |  |  |  |  | platelet aggregation controlling action (platelet aggregation): partienlarly excellent |
| CNc1nc(-c2ccc(OC)cc2)c(-c2cccnc2)s1 [Compound No. 1, 4-(4-methoxyphenyl)-2-methylamino-5-(3-pyridyl)-1,3-thiazole] | particularly excellent | particularly excellent | particularly excellent | 60 | 86 | 0/5 |  | P.Q. Method (inhibitory effect on writhing and stretching) ([2]; 25 mg/kg): 96.8 |
| Nc1nc(-c2ccccc2)c(-c2cccnc2)s1 [Compound No. 4] |  |  |  | 63.7 | 74 | 0/5 | 78.9 |  |
| COc1ccc(-c2nc(N)sc2-c2cccnc2)cc1 [compound 2, 2-amino-4-(4-methoxyphenyl)-5-(3-pyridyl)-1,3-thiazole] |  |  |  | 77.1 | 70 | 0/5 | 52.6 |  |
| Nc1nc(-c2ccc(O)cc2)c(-c2cccnc2)s1 [compound 9] |  |  |  | 16.9 | 71 | 0/5 | 40.5 |  |
| Nc1nc(-c2ccccc2)c(-c2ccccn2)s1 [compound 13] |  |  |  | 7.0 | 66 | 0/5 | 67.5 |  |
| COc1ccc(-c2nc(N)sc2-c2ccncc2)cc1 [compound 17] |  |  |  | 48.2 | 79 | 0/5 | 80.7 |  |
| COc1ccc(-c2nc(-c3ccccc3)sc2-c2cccnc2)cc1 [compound 28, 2-phenyl-4-(4-methoxyphenyl)-5-(3-pyridyl)-1,3-thiazole] |  |  |  | 15.7 | 33 | 0/5 | 63.3 |  |
| COc1ccc(-c2nc(CCCC(=O)O)sc2-c2cccnc2)cc1 [compound 43, 2-(3-carboxypropyl)-4-(4-methoyphenyl)-5-(3-pyridyl)-1,3-thiazole] |  |  |  |  |  |  |  | thromboxane synthetase inhibiting action [1]: particularly excellent |
| CNc1nc(-c2ccc3c(c2)CCC3)c(-c2cccnc2)s1 [compound 79, 4-(5-indanyl)-2-methylamino-5-(3-pyridyl)-1,3-thiazole] | particularly excellent | particularly excellent | particularly excellent |  |  |  |  |  |
